# Literature values as cited in US20250009631A1, “METHOD OF NAIL STRENGTHENING WITH A COMPLEX MICHAEL ADDITION TREATMENT COMPOSITION” (Wella Operations US, LLC, priority 2023, published 2025).
# Where two headings read alike, the source gives them in different places.
# Details: nail plate
compound,measurement,setting,value
c1ccncc1 [pyridine],permeability coefficient,pH 2,at least some permeation
same,permeability coefficient,pH 7.4,high permeation coefficient
